Data from patent publication US20260223843A1, “I[…]” (FYTEKO SA, priority 2022, published 2026).

What was measured:
Assay type in all cases: in vivo
[1] = system: brown plant hopper (Nilaparvata lugens); test: Control of the brown plant hopper in rice plants (spray, mortality); conditions: mortality of hopper larvae on sprayed rice plants; mg/L: Polyferulate 48, Chlorantraniliprole 45, Cyantraniliprole 135, combinations 48 + 45 and 48 + 135
Method: To determine the efficacy of insecticides on the mortality percentage of brown planthopper an experiment was conducted in the laboratory. The seedlings of 30-40 days old rice plant (Oryza sativa) were transplanted in plastic pot. The rice plants were grown in plastic pots with Mylar film cage and kept in the laboratory. Rice plants are sprayed with the preparation of the active compound at the desired concentration and are infested with larvae of the brown plant hopper (Nilaparvata lugens) while the rice leaves are still moist. Ten brown planthopper were released in each pot that was selected randomly.
The brown planthopper (BPH), Nilaparvata lugens (Hemiptera: Delphacidae) is a planthopper species that feeds on rice plants (Oryza sativa L.). These insects are among the most important pests of rice, which is the major staple crop for about half the world's population. After 3 days, the mortality in percentage is determined. 100% means that all the hopper larvae have been killed; 0% means that none of the hopper larvae have been killed.

[2] = Insecticide uptake by leaves of rice plants (LC-MS/MS); conditions: chlorantraniliprole in rice leaves 72 h after smearing 5 mL; chlorantraniliprole 100 μg/mL, polyferulate 25 μg/mL where present; three replicates
Method: Rice plants were cultivated in a plant growth chamber with a 12 h day and high intensity lighting. The rice leaves near the roots were smeared with 5 mL of solution containing chlorantraniliprole (100 μg·mL−1) or chlorantraniliprole (100 μg·mL−1) and polyferulate solution (25 μg·mL−1) and covered. When the droplets on the leaves were dried, the plastic was taken away. The rice leaves were harvested 72 h after treated. A sample of the rice leaves (5 g) was weighted and extracted with acetonitrile and the content of uptake chlorantraniliprole determinate by LC-MS/MS. Each experiment was repeated for three replicates.

[3] = system: whitefly (Bemisia tabaci); test: Control of whitefly in cotton plants (translaminar efficacy); conditions: 2nd instar nymphs on cotton leaf, adults counted, mg/L: Polyferulate 4, Spirotetramat 18.6, Imidacloprid 21.8, combinations 4 + 18.6 and 4 + 21.8
Method: Three-week-old cotton plants were defoliated so that only one true leaf remained. 20-30 female adults of B. tabaci were clipped to the underside of the leaf for egg deposition and removed after 16 h. The silverleaf whitefly (Bemisia tabaci, also informally referred to as the sweet potato whitefly) is one of several species of whitefly that are currently important agricultural pests.
Once the 2nd instar nymphs had settled the upper side of the leaf was sprayed using a TLC spraying device (Merck Inc.). Before spraying the number of nymphs was counted on each leaf. The application volume was 500 μL of tested insecticides solutions diluted in tap water. The final concentration of each component appears in the table. Translaminar efficacy was evaluated by counting adults 10 days after application.

Compound	Observed efficacy (%) 3 days after treatment [1]	Content of insecticide in the plant material [2]	Observed efficacy (%) 10 days after treatment [3]
CNC(=O)c1cc(Cl)cc(C)c1NC(=O)c1cc(Br)nn1-c1ncccc1Cl [Chlorantraniliprole]	50%	38.0 ± 0.3 µg/g	
CNC(=O)c1cc(C#N)cc(C)c1NC(=O)c1cc(Br)nn1-c1ncccc1Cl [Cyantraniliprole]	30%		
O=[N+]([O-])NC1=NCCN1Cc1ccc(Cl)nc1 [Imidacloprid]			45%
CCOC(=O)OC1=C(c2cc(C)ccc2C)C(=O)N[C@]12CC[C@@H](OC)CC2 [Spirotetramat]			75%
